Reference: patent US20120035187A1 (priority 2009, published 2012)

Tests used:
PC12-HS cells [1] = assay: Evaluation A: neurocyte (cell)-growth-promoting action, ALAMAR BLUE; format: cell-based, rat; details: compound concentration 25 ng/ml
Method: Then, the effects of test samples were judged as follows:
The relative value of 140 to 199: Equivalent effect to that of NK-4, symbol (∘); The relative value of 200 or higher: Stronger effect than that of NK-4, symbol ([…]). • The results are in Table 6.
The relative fluorescent intensity of each well was determined by using the fluorescent intensity of each well with cells, which had been cultured by admixing with D-MEM medium containing 10% by volume of FBS without any of the compounds, and the intensity of the resulting culture was regarded as 100%. The results are expressed as cell survival percentages (%) in Table 9. […]
The test was conducted twice for each test sample in a triplicate manner and the data were averaged.
Seven compounds as in Table 17, NK-234, NK-26, NK-9815, NK-9694, NK-28 and NK-147 as well as NK-4, were each dissolved in DMSO to give a concentration of 5 mg/ml. […] The test was conducted twice for each test sample in a triplicate manner and the data were averaged.

PC12-HS cells [2] = assay: Evaluation B: neurite-outgrowth action in presence of NGF; format: cell-based, rat; details: for Evaluation B: Neurite-outgrowth action: 50 μl of 400 ng/ml test sample solution per well + NGF final 5 ng/ml, 3 days
[3] = test system: hamsters with cerebellar ataxia; assay: Rotarod test in hamsters with cerebellar ataxia; format: in vivo, hamster; details: hamster with cerebellar ataxia; agent of Example 1, 0.5 ml/hamster intraperitoneally once a day for 56 days
Text: (§1) Since NK-4 was confirmed to have a neurodegenerative inhibitory action in Experiment 1, hamsters with cerebellar ataxia (cerebellar ataxia is called “cerebellar A” and hamsters with cerebellar ataxia are called “hamsters with cerebellar A”, hereinafter) as a suitable model for human neurodegenerative diseases (e.g., spinal cerebellar degeneration) were subjected to examine the influence of NK-4 administration on their behaviors and brain tissues. Twenty-five hamsters with natural mutation (Nna1 inhibition), which are known to lose Purkinje's cells after three-weeks of age and then induce a spontaneous onset of kinetic motor ataxia after seven-weeks of age (see Akita K. et al., “J. Neurogenetics”, Vol. 21, pp. 19-29, 2007), had been fed at Hayashibara Biochemical Laboratories., Inc., Okayama, Japan, were randomly allocated to the test groups 1 to 5, five heads in each group, as shown in Table 2. Prior to the onset of cerebellar A (at three-weeks of age), PBS was started to administer to the hamsters in the test group 1 at a dose of 10 ml/kg/day. Prior to the onset of cerebellar A (at three-weeks of age), NK-4 was started to be administered to the hamsters in the test groups 2 to 4 at a daily dose of 20 μg/kg, 100 μg/kg or 500 μg/kg. “IGF-1, human, a product name of insulin-like growth factor, commercialized by Assaypro LLC, MO, USA. These administered ingredients were intraperitoneally administered daily to hamsters once a day up to 10-weeks of age. The degree of symptom of cerebellar A and the improvement effect on the symptom by NK-4 were evaluated with an index of improvement in motor coordination of hamsters by conducting once a week the later described rotarod test and the slant tolerance test. At the age of 10-weeks, the hamsters were subjected to counting the falling down frequency and extracted their brains, which were then histologically evaluated. In parallel, the concentration of glutamic acid in the bloods and cerebrospinal fluids (CSF) of the hamsters was assayed. As a test group 6, five normal hamsters, with the same age as the hamsters with cerebellar A used in the test groups 1 to 5, were provided and tested similarly as the hamsters with cerebellar A in such a manner of intraperitoneally administering PBS to them at a dose of 10 ml/kg/day once a day up to 10-weeks of age.
As an index for coordinated movement, it was used a duration time of hamster's movement to staying on a rotarod by locomotion in synchronization with the turn of the rotarod; placing a hamster on an apparatus with a rotarod (having a diameter of 60 mm, prepared by Hayashibara Biochemical Laboratories, Inc., Okayama, Japan), turning at a constant rate of six rpm, and measuring the time until the hamster falls down from the rotarod (see Fernandez et al., “Proc. Natl. Acad. Sci. USA”, Vol. 95, pp. 1253-1258, 1998). The test was repeated six times for each hamster, where five-times of tests starting from the initiation of the test were made as a preliminary examination, and the time until each hamster fell down from the rotarod (called “falling time”, hereinafter) was measured, followed by averaging the falling times for each group consisting of five heads. The falling time was measured until 180 seconds. Based on the results, the relationship between the age and the falling time for each hamster with cerebellar A (test group 1) administered with PBS was graphed. […]
Similarly as in Experiment 2, 130 hamsters with cerebellar ataxia, born within the same week and 3-weeks of age, were randomly divided into 13 groups, consisting of 10 hamsters, respectively. […]

[4] = test system: hamsters with cerebellar ataxia; assay: Slant tolerance test in hamsters with cerebellar ataxia; format: in vivo, hamster; details: hamster with cerebellar ataxia; agent of Example 1, 0.5 ml/hamster intraperitoneally once a day for 56 days
Text: as §1
Hamsters were placed on a slope-angle-variable-board while keeping their heads upward, followed by determining the angle for allowing the hamsters to keep staying thereupon for five seconds for use as an endurable-slant-slope-angle test (see Rivlin et al., “J. Neurosurg.”, Vol. 47, pp. 577-581, […]). The initial slope angle was set to 25 degrees and increased by 5 degrees step by step. When a tested hamster in a static condition fell down within five seconds, the slope angle was decreased by one degree step by step, followed by judging the angle that allows the hamster to keep static staying for five seconds, measuring the tolerable slant-slope-angle, and averaging the data for five heads in each group.
(§2) Similarly as in Experiment 2, 130 hamsters with cerebellar ataxia, born within the same week and 3-weeks of age, were randomly divided into 13 groups, consisting of 10 hamsters, respectively. […] The hamsters (10 heads) in the remaining one group were intraperitoneally administered from their age of 3- to 10-weeks with a sterilized 10% maltose solution (pyrogen-free) in an amount of 0.5 ml/hamster (control) once a day for 56 days At the next day after the end of the administration, body weight of each hamster was weighed, followed by performing rotarod test, slope endurance test, and counting of falling down frequency. The types of compounds applied to each group and the results are in Table 25.

[5] = test system: hamsters with cerebellar ataxia; assay: Falling down frequency of hamsters with cerebellar ataxia; format: in vivo, hamster; details: hamster with cerebellar ataxia; agent of Example 1, 0.5 ml/hamster intraperitoneally once a day for 56 days
Text: as §1
Hamsters, 10-weeks of age, were respectively housed in a breeding cage. Their falling down frequencies within one minute were counted under a macroscopic observation and the data from five heads in each group were averaged. For reference, the hamsters with cerebellar A used in this experiment are known to increase their falling down frequencies after nine weeks of age.
as §2

Structure (SMILES) | Action of enhancing cell growth (%) (PC12-HS cells [1]) | Action on neurite outgrowth (%) (PC12-HS cells [2]; compound concentration 80 ng/ml) | Action on neurite outgrowth (%) (PC12-HS cells [2]; compound concentration 400 ng/ml) | Action on neurite outgrowth (%) (PC12-HS cells [2]; compound concentration 2000 ng/ml) | Action on neurite outgrowth (%) (PC12-HS cells [2]; compound concentration 10000 ng/ml) | Time of falling from rotarod [3] [s] | Endurable-slant-slope-angle (°) [4] [°] | Falling down frequency (count/min) [5] [count/min] | Evaluation B: Neurite-outgrowth action (PC12-HS cells [2])
CCCN1C=CC(=CC=C(C=Cc2cc[n+](CCC)c3ccccc23)c2cc[n+](CCC)c3ccccc23)c2ccccc21.[I-].[I-] [NK-234] | 168 ± 45 | 24 ± 7 | 57 ± 7 | 61 ± 3 | 66 ± 20 | – | – | – | –
CN(C)c1ccc(/C=C/c2oc3ccccc3[n+]2C)cc1 [NK-528] | – | – | – | – | – | 37.5 ± 11.2 | 43.9 ± 3.0 | 5.2 ± 1.4 | ∘ (The test sample with a neurite outgrowth rate of 30% or higher was judged to be equivalent or more (∘) compared with NK-4)
COc1ccc2oc(/C=C/c3ccc(N(C)C)cc3)[n+](C)c2c1 [NK-1516] | – | – | – | – | – | 42.4 ± 6.3 | 46.5 ± 2.9 | 7.1 ± 0.8 | ∘ (The test sample with a neurite outgrowth rate of 30% or higher was judged to be equivalent or more (∘) compared with NK-4)
